In patent US20230355558A1 (priority 2022, published 2023):

System: SARS-CoV-2
Assay type: cell-based

## NCC1CCC(C(=O)[O][Ca][O]C(=O)C2CCC(CN)CC2)CC1 (stereo not shown) [Ca-TA, Calcium bis-tranexamate]
  antiviral efficacy against SARS-CoV-2 infections and its emerging variants: desired antiviral efficacy
